The numbers were not newly measured in patent publication US7737133B2, “Formulations and methods of treating inflammatory bowel disease” (AGI Therapeutics Ltd., priority 2003, dated 2010), which cites them from elsewhere.

For series [1] the following is noted: reportedly; Ginsberg et al.
For series [2] the following is noted: compared with 5-ASA.

On to `Nc1ccc(C(=O)O)c(O)c1` [Example 4-ASA, 4-aminosalicylic acid], for which the nephrotoxicity result in series [1] is reported as “absence of nephrotoxicity”. Besides, in series [2], the aqueous stability result is “higher aqueous stability”.
In the case of `O=C(O)c1cc(N=Nc2ccc(O)c(C(=O)O)c2)ccc1O` [olsalazine, 5,5′-azo-bis salicylic acid], under “after cleavage of olsalazine in the colon”, the “systemic absorption of 5-ASA or its acetylated form” value was “approximately 20%”. Besides, the “absorbed intact from the gut” value (olsalazine, conventional powder capsule) is given as 2.4%.
